Values quoted from earlier work, collected in paper PMC9516332 (Frontiers in Oncology, 2022).
Like-named read-outs stand apart in the source and are kept apart here.

Columns and labels:
Conditions in all cases: cited from earlier work
[1] = target: panel of 255 wild-type kinases (Homo sapiens, UniProt P10721)
[2] = target: panel of 255 wild-type kinases (Homo sapiens, UniProt P19784)
[3] = target: T1, panel of 255 wild-type kinases (Homo sapiens, UniProt P53778)
T1 sequence (P53778 1-367): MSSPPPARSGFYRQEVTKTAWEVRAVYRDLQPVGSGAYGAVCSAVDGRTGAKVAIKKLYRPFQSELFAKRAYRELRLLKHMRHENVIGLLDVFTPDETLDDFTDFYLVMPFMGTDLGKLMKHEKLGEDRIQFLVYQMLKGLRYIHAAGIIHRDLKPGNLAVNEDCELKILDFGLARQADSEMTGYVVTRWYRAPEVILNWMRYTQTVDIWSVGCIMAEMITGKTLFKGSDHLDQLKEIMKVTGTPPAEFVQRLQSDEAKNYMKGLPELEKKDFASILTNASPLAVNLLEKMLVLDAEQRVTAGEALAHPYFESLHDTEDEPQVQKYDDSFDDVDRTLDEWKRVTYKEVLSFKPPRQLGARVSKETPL

[4] = target: panel of 255 wild-type kinases (Homo sapiens, UniProt Q9Y243)
[5] = target: panel of 255 wild-type kinases (Homo sapiens, UniProt O75116)
[6] = target: panel of 255 wild-type kinases (Homo sapiens, UniProt P08631)
[7] = target: panel of 255 wild-type kinases (Homo sapiens, UniProt Q13557)
[8] = target: T2, panel of 255 wild-type kinases (Homo sapiens, UniProt P54762)
T2 sequence (P54762 18-984): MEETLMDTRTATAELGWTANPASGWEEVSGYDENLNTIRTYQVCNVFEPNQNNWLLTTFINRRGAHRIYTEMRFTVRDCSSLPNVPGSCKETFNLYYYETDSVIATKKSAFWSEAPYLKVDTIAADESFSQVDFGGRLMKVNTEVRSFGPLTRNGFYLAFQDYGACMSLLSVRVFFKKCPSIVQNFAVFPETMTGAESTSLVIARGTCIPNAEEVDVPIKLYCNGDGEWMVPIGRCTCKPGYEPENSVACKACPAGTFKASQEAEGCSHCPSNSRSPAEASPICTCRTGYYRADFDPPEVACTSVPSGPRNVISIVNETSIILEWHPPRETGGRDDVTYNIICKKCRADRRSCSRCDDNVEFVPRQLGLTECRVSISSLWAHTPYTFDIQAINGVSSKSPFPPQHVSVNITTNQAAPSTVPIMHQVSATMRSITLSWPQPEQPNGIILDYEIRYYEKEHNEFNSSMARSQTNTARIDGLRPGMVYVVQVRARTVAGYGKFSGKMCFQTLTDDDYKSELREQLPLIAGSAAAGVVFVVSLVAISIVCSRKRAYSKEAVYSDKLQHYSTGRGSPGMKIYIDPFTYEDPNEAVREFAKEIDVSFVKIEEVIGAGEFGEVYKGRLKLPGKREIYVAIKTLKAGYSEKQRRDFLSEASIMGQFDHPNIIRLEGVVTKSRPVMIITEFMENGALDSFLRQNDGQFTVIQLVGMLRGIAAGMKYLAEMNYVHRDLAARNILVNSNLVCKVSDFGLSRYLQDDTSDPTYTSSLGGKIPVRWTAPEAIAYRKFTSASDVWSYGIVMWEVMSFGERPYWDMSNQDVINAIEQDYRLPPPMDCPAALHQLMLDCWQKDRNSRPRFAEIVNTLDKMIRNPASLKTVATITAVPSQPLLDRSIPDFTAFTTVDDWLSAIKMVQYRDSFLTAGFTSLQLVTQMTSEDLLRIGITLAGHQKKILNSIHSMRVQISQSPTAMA

[9] = target: T3, panel of 255 wild-type kinases (Homo sapiens, UniProt Q8IW41)
T3 sequence (Q8IW41 1-473): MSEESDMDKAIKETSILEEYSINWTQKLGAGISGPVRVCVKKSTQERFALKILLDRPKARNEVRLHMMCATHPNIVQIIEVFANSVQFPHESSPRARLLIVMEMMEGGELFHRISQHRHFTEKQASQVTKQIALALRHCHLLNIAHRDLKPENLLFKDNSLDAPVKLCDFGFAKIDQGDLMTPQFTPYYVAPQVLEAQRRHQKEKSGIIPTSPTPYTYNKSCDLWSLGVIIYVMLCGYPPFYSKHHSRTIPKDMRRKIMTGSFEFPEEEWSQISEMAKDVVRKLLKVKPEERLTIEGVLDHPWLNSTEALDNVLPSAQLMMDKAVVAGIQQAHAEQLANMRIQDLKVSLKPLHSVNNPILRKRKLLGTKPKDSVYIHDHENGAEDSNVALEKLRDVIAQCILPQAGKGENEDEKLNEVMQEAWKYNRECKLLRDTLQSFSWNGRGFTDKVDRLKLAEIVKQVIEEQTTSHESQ

[10] = target: panel of 255 wild-type kinases (Homo sapiens, UniProt P00533)
[11] = kinase KIT, 1 µmol/L single concentration, ref DOI: 10.1158/1535-7163.MCT-18-0877
[12] = kinase CK2α2/β, 1 µmol/L single concentration, ref DOI: 10.1158/1535-7163.MCT-18-0877
[13] = p38γ, 1 µmol/L single concentration, ref DOI: 10.1158/1535-7163.MCT-18-0877
[14] = AKT3 kinase assay, 1 µmol/L single concentration, ref DOI: 10.1158/1535-7163.MCT-18-0877
[15] = kinase ROCK2, 1 µmol/L single concentration, ref DOI: 10.1158/1535-7163.MCT-18-0877
[16] = kinase HCK, 1 µmol/L single concentration, ref DOI: 10.1158/1535-7163.MCT-18-0877
[17] = CaMK2δ kinase assay, 1 µmol/L single concentration, ref DOI: 10.1158/1535-7163.MCT-18-0877
[18] = kinase EPHB1, 1 µmol/L single concentration, ref DOI: 10.1158/1535-7163.MCT-18-0877
[19] = MAPKAPK5, 1 µmol/L single concentration, ref DOI: 10.1158/1535-7163.MCT-18-0877
[20] = kinase EGFR, 1 µmol/L single concentration, ref DOI: 10.1158/1535-7163.MCT-18-0877
[21] = kinase KIT, 1 µmol/L single concentration, ref DOI: 10.1371/journal.pone.0092146
[22] = p38γ, 1 µmol/L single concentration, ref DOI: 10.1371/journal.pone.0092146
[23] = kinase ROCK2, 1 µmol/L single concentration, ref DOI: 10.1371/journal.pone.0092146
[24] = kinase HCK, 1 µmol/L single concentration, ref DOI: 10.1371/journal.pone.0092146
[25] = CaMK2δ kinase assay, 1 µmol/L single concentration, ref DOI: 10.1371/journal.pone.0092146
[26] = kinase EPHB1, 1 µmol/L single concentration, ref DOI: 10.1371/journal.pone.0092146
[27] = kinase CK2α2/β, 1 µmol/L single concentration, ref DOI: 10.1371/journal.pone.0092146
[28] = AKT3 kinase assay, 1 µmol/L single concentration, ref DOI: 10.1371/journal.pone.0092146
[29] = MAPKAPK5, 1 µmol/L single concentration, ref DOI: 10.1371/journal.pone.0092146
[30] = kinase EGFR, 1 µmol/L single concentration, ref DOI: 10.1371/journal.pone.0092146

Row | SMILES | %-inhibition at 1 µmol/L, KIT [1, 11] [%] | %-inhibition at 1 µmol/L, CK2α2/β [2, 12] [%] | %-inhibition, p38γ [3, 13] [%] | %-inhibition AKT3 [4, 14] [%] | %-inhibition at 1 µmol/L, ROCK2 [5, 15] [%] | %-inhibition at 1 µmol/L, HCK [6, 16] [%] | %-inhibition CaMK2δ [7, 17] [%] | %-inhibition at 1 µmol/L, EPHB1 [8, 18] [%] | %-inhibition, MAPKAPK5 [9, 19] [%] | %-inhibition at 1 µmol/L, KIT [1, 21] [%] | %-inhibition at 1 µmol/L, ROCK2 [5, 23] [%] | %-inhibition at 1 µmol/L, HCK [6, 24] [%] | %-inhibition CaMK2δ [7, 25] [%] | %-inhibition at 1 µmol/L, EPHB1 [8, 26] [%] | other results
1 | O=C(c1ccc(F)c(F)c1Nc1ccc(I)cc1F)N1CC(O)([C@@H]2CCCCN2)C1 [cobimetinib] | -17 | -6 | 2 | -3.43 | 3.55 | -3.63 | 1.1 | 4 | -1 | – | – | – | – | – | %-inhibition at 1 µmol/L, EGFR [10, 20]: 8%
2 | CC(C)(C)c1nc(-c2cccc(NS(=O)(=O)c3c(F)cccc3F)c2F)c(-c2ccnc(N)n2)s1 [dabrafenib] | – | – | – | – | – | – | – | – | – | 59 | 14 | 57 | -0.23 | 12 | %-inhibition, p38γ [3, 22]: 0.311%
3 | Cc1cc(Nc2ncc(Cl)c(Nc3ccccc3S(=O)(=O)C(C)C)n2)c(OC(C)C)cc1C1CCNCC1 [ceritinib] | – | -6 | 3.32 | -4 | – | 15 | 76 | 26 | -2.68 | – | – | – | – | – | –
4 | CCc1cc2c(cc1N1CCC(N3CCOCC3)CC1)C(C)(C)c1[nH]c3cc(C#N)ccc3c1C2=O [alectinib] | 0.373 | -3 | 1.73 | -0.889 | 4.54 | 43 | 37 | 21 | -2.38 | – | – | – | – | – | –
5 | CCCS(=O)(=O)Nc1ccc(F)c(C(=O)c2c[nH]c3ncc(-c4ccc(Cl)cc4)cc23)c1F [vemurafenib] | – | – | – | – | – | – | – | – | – | 58 | -0.177 | 30 | -0.235 | -1.63 | %-inhibition at 1 µmol/L, CK2α2/β [2, 27]: -6.56%; %-inhibition, p38γ [3, 22]: -0.299%; %-inhibition AKT3 [4, 28]: -0.678%; %-inhibition, MAPKAPK5 [9, 29]: 12%; %-inhibition at 1 µmol/L, EGFR [10, 30]: 7%
6 | COc1cc(N2CCC(N3CCN(C)CC3)CC2)ccc1Nc1ncc(Cl)c(Nc2ccccc2P(C)(C)=O)n1 [brigatinib] | – | – | – | – | – | – | – | – | – | – | – | – | – | – | %-inhibition at 1 µmol/L, KIT [1]: 51%; %-inhibition at 1 µmol/L, CK2α2/β [2]: -4%; %-inhibition, p38γ [3]: 3%; %-inhibition AKT3 [4]: -0.864%; %-inhibition at 1 µmol/L, ROCK2 [5]: 30%; %-inhibition at 1 µmol/L, HCK [6]: 78%; %-inhibition CaMK2δ [7]: 101%; %-inhibition at 1 µmol/L, EPHB1 [8]: 36%; %-inhibition, MAPKAPK5 [9]: 3.41%; %-inhibition at 1 µmol/L, EGFR [10]: 97%
7 | CC(=O)Nc1cccc(-n2c(=O)n(C3CC3)c(=O)c3c(Nc4ccc(I)cc4F)n(C)c(=O)c(C)c32)c1 [trametinib] | – | – | – | – | – | – | – | – | – | -0.648 | 3 | -2.84 | -2.19 | -8 | %-inhibition at 1 µmol/L, CK2α2/β [2, 27]: -5.29%; %-inhibition, p38γ [3, 22]: 0.684%; %-inhibition AKT3 [4, 28]: -5.3%; %-inhibition, MAPKAPK5 [9, 29]: -2.22%; %-inhibition at 1 µmol/L, EGFR [10, 30]: -0.0959%
8 | C=CC(=O)Nc1cc(Nc2nccc(-c3cn(C)c4ccccc34)n2)c(OC)cc1N(C)CCN(C)C [osimertinib] | -13 | 16 | 2.19 | -1.74 | 6.54 | 0.0489 | 19 | 13 | 0.814 | – | – | – | – | – | –
9 | CO[C@@H]1[C@H](N(C)C(=O)c2ccccc2)C[C@H]2O[C@]1(C)n1c3ccccc3c3c4c(c5c6ccccc6n2c5c31)C(=O)NC4 [midostaurin] | – | 2 | 7 | – | 38 | – | – | – | -2 | – | – | – | – | – | %-inhibition at 1 µmol/L, EGFR [10, 20]: 69%
10 | C=CC(=O)N1CCC[C@@H](n2nc(-c3ccc(Oc4ccccc4)cc3)c3c(N)ncnc32)C1 [ibrutinib] | -4.53 | -7 | 3.51 | -2.25 | 3.74 | 100 | -0.826 | 12 | -2.44 | – | – | – | – | – | –
11 | C[C@@H](Oc1cc(-c2cnn(C3CCNCC3)c2)cnc1N)c1c(Cl)ccc(F)c1Cl [crizotinib] | – | – | – | – | – | – | – | – | – | 16 | 4.25 | 26 | 4 | 93 | %-inhibition at 1 µmol/L, CK2α2/β [2, 27]: -10%; %-inhibition AKT3 [4, 28]: -1.83%; %-inhibition, MAPKAPK5 [9, 29]: -3.19%
